The source made the active and inactive calls. The rule behind the calls is not given here.
What was measured:
HL-60 [1] = test: Cytotoxicity against human HL60 cells; format: functional, cell-based
HL-60 [2] = test: Induction of autophagy in human HL60 cells assessed as increase in lipidated microtubule-associated-protein light chain 3 subunit II levels at 4 uM after 3 to 6 hrs; format: functional, cell-based
HL-60 [3] = test: Induction of apoptosis in human HL60 cells at 4 uM in presence of 100 uM caspase inhibitor ZVADFMK by Trypan blue exclusion test; format: functional, cell-based
HL-60 [4] = test: Effect on caspase 2 activity in human HL60 cells at 4 uM; format: functional, cell-based
HL-60 [5] = test: Increase in JNK protein level in human HL60 cells at 4 uM by Western blot; format: functional, cell-based
HL-60 [6] = test: Induction of autophagy in human HL60 cells at 4 uM in presence of PI3K inhibitor 3-methyladenine; format: functional, cell-based
HL-60 [7] = test: Induction of nuclear condensation in human HL60 cells at 4 uM after 24 hrs by Hoechst33342 staining method; format: functional, cell-based
HL-60 [8] = test: Disruption of mitochondrial membrane potential in human HL60 cells at 4 uM after 12 hrs; format: functional, cell-based
HL-60 [9] = test: Induction of cell death in human HL60 cells assessed as formation of autophagosomes at 4 uM after 6 hrs; format: functional, cell-based
HL-60 [10] = test: Induction of apoptosis in human HL60 cells assessed as increase in phospho-Bcl-xl levels at 4 uM after 12 hrs; format: functional, cell-based
HL-60 [11] = test: Effect on caspase 9 activity in human HL60 cells at 4 uM; format: functional, cell-based
HL-60 [12] = test: Effect on caspase 3 activity in human HL60 cells at 4 uM; format: functional, cell-based
HL-60 [13] = test: Increase in p38 MAPK protein level in human HL60 cells at 4 uM by Western blot; format: functional, cell-based
HL-60 [14] = test: Induction of apoptosis in human HL60 cells assessed as increase in phospho-Bcl2 at 4 uM after 12 hrs; format: functional, cell-based
HL-60 [15] = test: Induction of autophagy in human HL60 cells at 4 uM in presence of PI3K inhibitor LY-294002; format: functional, cell-based
[16] = molecular target: RAC-alpha serine/threonine-protein kinase (Homo sapiens) (UniProt P31749); test: Increase in Akt phosphorylation in human HL60 cells at 4 uM after 48 hrs; format: cell-based; details: HL-60
HL-60 [17] = test: Effect on caspase 8 activity in human HL60 cells at 4 uM; format: functional, cell-based
HL-60 [18] = test: Induction of apoptosis in human HL60 cells assessed as increase in phospho-Bad levels at 4 uM after 12 hrs; format: functional, cell-based
HL-60 [19] = test: Induction of apoptosis in human HL60 cells assessed as decrease in Bax levels at 4 uM after 12 hrs; format: functional, cell-based
HL-60 [20] = test: Induction of autophagy in human HL60 cells at 4 uM after 12 hrs by MDC staining; format: functional, cell-based
HL-60 [21] = test: Increase in intracellular ROS level in human HL60 cells at 4 uM after 12 hrs; format: functional, cell-based
HL-60 [22] = test: Induction of DNA fragmentation in human HL60 cells at 4 uM; format: functional, cell-based; details: TDE = time-dependent effect

Chain of RAC-alpha serine/threonine-protein kinase (Homo sapiens) (P31749 whole entry): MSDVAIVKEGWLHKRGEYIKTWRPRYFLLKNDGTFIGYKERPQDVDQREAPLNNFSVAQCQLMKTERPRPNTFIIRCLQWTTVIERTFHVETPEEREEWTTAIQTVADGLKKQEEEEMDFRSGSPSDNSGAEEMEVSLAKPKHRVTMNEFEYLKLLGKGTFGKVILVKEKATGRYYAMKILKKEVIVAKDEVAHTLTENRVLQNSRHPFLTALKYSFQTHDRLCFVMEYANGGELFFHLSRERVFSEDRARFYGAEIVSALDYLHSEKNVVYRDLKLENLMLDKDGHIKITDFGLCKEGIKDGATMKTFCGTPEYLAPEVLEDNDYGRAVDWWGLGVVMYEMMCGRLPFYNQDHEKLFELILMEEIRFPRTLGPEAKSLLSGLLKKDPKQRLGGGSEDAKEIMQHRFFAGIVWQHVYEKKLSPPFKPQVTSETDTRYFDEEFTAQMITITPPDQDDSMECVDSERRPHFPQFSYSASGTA

Structure (SMILES): C=C1C(=O)O[C@@H]2/C=C(/C)[C@@H](OC(C)=O)C[C@H]3O[C@]3(C)C[C@@H](OC(=O)/C(=C/C)CO)[C@@H]12 [EUPALININ A]
- IC50 (HL-60 [1]): 2400 nM
- Activity (HL-60 [2]): Active
- Activity (HL-60 [3]): inactive
- Activity (HL-60 [4]): Active
- Activity (HL-60 [5]): Active
- Activity (HL-60 [6]): Active
- Activity (HL-60 [7]): Active
- Activity (HL-60 [8]): Active
- Activity (HL-60 [9]): Active
- Activity (HL-60 [10]): Active
- Activity (HL-60 [11]): Active
- Activity (HL-60 [12]): Active
- Activity (HL-60 [13]): Active
- Activity (HL-60 [14]): Active
- Activity (HL-60 [15]): Active
- Activity [16]: Active
- Activity (HL-60 [17]): Active
- Activity (HL-60 [18]): Active
- Activity (HL-60 [19]): Active
- Activity (HL-60 [20]): Active
- Activity (HL-60 [21]): Active
- Activity (HL-60 [22]): tde
